One assay relates to KIR6.2/NMT 55-SUR2B. Put plainly: Inside-out patch-clamp potassium current, ATP sensitivity. The settings on record: 100 μM ATP, COS1 cells containing KIR6.2/NMT 55-SUR2B, 0 mV, room temperature (FIG. 4C). Format: cell-based, mouse. How it is done: (§1) Cellular Electrophysiology: Electrophysiology experiments were carried out as previously described by Chutkow el al., with modifications. Chutkow W, et al., “Alternative splicing of sur2 Exon 17 regulates nucleotide sensitivity of the ATP-sensitive potassium channel,” J. Biol. Chem. 274:13656-13665 (1999). Briefly, KIR^6.2 was sub-cloned to 5′ of a bicistronic vector (pIRGFP, as pNQ56.) to express the desired NMT-SUR2 short forms and GFP under control of a cytomegalovirus promoter. The KIR6.2 construct was transiently expressed in COS1 cell lines that stably expressed NMT 55-SUR2A or NMT 55-SUR2B. Cells expressing GFP were used for cellular electrophysiological analysis.
(§2) Potassium currents were measured at room temperature (˜22-25° C.) by an inside-out patch-clamp technique. The bath solution (cytoplasmic side) comprised the following: 140 mM KCl, 2 mM cthylene glycol-bis(β-aminioethyl ether)-N,N,N′,N′-tetraacetic acid (EGTA), 5.5 mM glucose and 5 mM N-2-hydroxyethylpiperazine-N′-2-ethanesulfonic acid (HEPES) with pH 7.3. The pH was adjusted to the designated values using KOH or HCl. 100 μM K2ATP (Sigma) was used to test the ATP sensitivity, and the ATP-containing solutions were freshly prepared. […] Signals were recorded continuously at 0 mV using a patch-clamp amplifier (Axopatch 200; Molecular Devices; Toronto, Canada) and Clampex 10.0 software (Molecular Devices).
Background: Patch clamp records ionic current or voltage across a cell membrane.

In a further assay the test system is KIR6.2/NMT 55-SUR2A. The assay is described as above. Format: cell-based, mouse. The settings on record: 100 μM ATP, COS1 cells containing KIR6.2/NMT 55-SUR2A, 0 mV, room temperature (FIG. 3C). How it is done: as §1, §2
The target in the next assay is KIR6.2 (mouse) (UniProt Q61743). The assay is described as follows: cell-based or functional assay.
Chain of UniProt Q61743 (Q61743 whole entry): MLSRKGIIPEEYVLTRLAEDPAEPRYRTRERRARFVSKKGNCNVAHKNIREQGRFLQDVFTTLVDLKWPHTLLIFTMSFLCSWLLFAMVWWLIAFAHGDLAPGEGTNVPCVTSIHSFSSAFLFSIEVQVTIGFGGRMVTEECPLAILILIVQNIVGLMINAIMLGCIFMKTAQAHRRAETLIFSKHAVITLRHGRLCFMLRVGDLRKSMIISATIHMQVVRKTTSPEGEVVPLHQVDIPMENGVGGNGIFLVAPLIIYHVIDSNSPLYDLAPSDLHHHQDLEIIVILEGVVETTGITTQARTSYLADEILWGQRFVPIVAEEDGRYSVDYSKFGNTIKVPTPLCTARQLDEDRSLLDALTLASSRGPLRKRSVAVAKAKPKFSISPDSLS

With `Nc1ncnc2c1ncn2[C@@H]1O[C@H](COP(=O)([O-])OP(=O)(O)OP(=O)([O-])O)[C@@H](O)[C@H]1O.[K+].[K+]` [ATP], the IKATP-like current entry in the assay on KIR6.2/NMT 55-SUR2B and in the assay with KIR6.2/NMT 55-SUR2A was “inhibited” in each case.

In turn, “SUR2B short form (~55 kDa) (from UniProt P70170 1-1504)” yielded a growth of E. coli K+ uptake mutant 6106 in M9 minimal medium pH 5.5 in the assay with KIR6.2 (mouse) of 12%.

For the origin of these results see US20080293087A1, “SULFONYLUREA RECEPTOR SHORT FORMS FROM MITOCHONDRIA AND USES THEREOF” (priority 2006, published 2008).
